Entries after “also recorded” stand apart in the source; their conditions may differ.

Experimental findings from patent publication US10123985B2, “Therapeutic strategies for treating mitochondrial disorders” (Whitehead Institute for Biomedical Research, priority 2015, dated 2018) are described below.

Assay [1] deals with Jurkat cells. The experiment in a line: NAD+ and NADH measurements in Jurkat cells. The class given is cell-based, human. The note with it: wild type Jurkat cells, phenformin (10 μM), aspartate (10 mM). The procedure: Measurement of NAD^+/NADH was done by modification of manufacturer instructions for NAD^+/NADH Glo Assay (Promega). Jurkat cells were incubated in RPMI under the conditions listed for 8 hours before cell extracts were taken. To extract NAD^+/NADH, cells were centrifuged for 1 minute at 300×g, and washed 3 times by quickly resuspending in 15 mL PBS and centrifuging for 1 minute at 300×g. Pelleted samples were extracted in 100 μL ice cold lysis buffer (1% Dodecyltrimethylammonium bromide (DTAB) in 0.2 N NaOH diluted 1:1 with PBS) and frozen at −80° C. To measure NADH, 20 μL of extracts were heated to 75° C. for 30 min in the basic lysis buffer to degrade NAD^+. To measure NAD^+, samples were diluted 1:1 with 0.4 N HCl and incubated at 60° C. for 15 min where acidic conditions will degrade NADH. Following incubations, samples were quenched by adding 20 μL of 0.25 M Tris, 0.2 N HCl (NADH) or 20 μL of 0.5 M Tris base (NAD^+). Manufacturer instructions were then followed to measure NAD^+/NADH.

Assay [2] deals with 143B CytB cells. The assay can be described thus: Cell cycle distribution by propidium iodide flow cytometry. The class given is cell-based. As to conditions: 143B CytB cells without AKB compared with AKB, 78 hours. The procedure: 143B CytB cells were incubated in untreated media or media containing AKB or 100 μM adenine for 78 hours before being washed with PBS, trypsinized, pelleted, and resuspended in 500 μL PBS. Cells were fixed by adding 4.5 mL 70% ethanol and incubated at 4° C. overnight. The following day cells were pelleted and resuspended in 1 mL PBS+0.1% (v/v) Triton X-100. RNase A and then propidium iodide (PI) were added to 0.2 mg/mL and 20 μg/mL, respectively. Samples were incubated at 37° C. for 15 minutes and filtered into a flow cytometry tube. DNA content was measured by flow cytometry (BD FACS Canto II) and analyzed (FACS Diva Software).

Assay [3] has as its system 143B CytB cells. The assay can be described thus: GC-MS of AKB and AHB concentration in the media during proliferation assay. It counts as cell-based. The note with it: media of 143B CytB cells proliferating with AKB. As to the method: FIG. 1. Cytochrome B mutant 143B cybrid cells are auxotrophic for oxidized substrates that can regenerate NAD^+. (A) Proliferation rate of 143B CytB cells was determined in the presence or absence of pyruvate. (left) Cells were normalized to cell number at t=0 when media conditions were applied. (B) A major fate of pyruvate is as a substrate of lactate dehydrogenase (LDH) where it accepts electrons from NADH to produce NAD^+ and lactate. (C) α-Ketobutyrate (AKB) can act as an alternative electron acceptor substrate for LDH, yielding NAD^+ α-hydroxybutyrate (AHB). (D) Proliferation rate for 143B CytB cells in the presence or absence of AKB was determined as in (A). (E) Intracellular ratio of NAD^+/NADH was determined in 143B CytB cells in untreated media or in the presence of pyruvate (Pyr) or AKB. (F) The concentration of AKB and AHB in the media was determined by GC-MS analysis for each day of a proliferation assay of 143B CytB cells in the presence of AKB as in (D). […]
Given the chemical structure differences between AKB and pyruvate, they cannot share direct carbon-fates, thus we reasoned that AKB is likely being used predominantly as an electron acceptor and not as a carbon substrate in metabolic pathways. To verify this we measured the consumption rate of AKB and the excretion rate of the reduced product, α-hydroxybutyrate (AHB), formed upon NAD^+ regeneration (FIG. 1C). […]

Assay [4] deals with ETC-defective cybrid cells. The assay can be described thus: [U-13C]-L-glutamine isotope tracing of aspartate in cybrid cells. It counts as cell-based. The note with it: [U-13C]-L-glutamine 7 hours, pyruvate (1 mM). The procedure: FIG. 19. […] Cell line models of ETC dysfunction were cultured in RPMI (supplemented with uridine) with pyruvate (1 mM) or aspartate (10 mM) for 6 days. Relative cell number was determined by normalizing to the pyruvate-supplemented condition. Representative bright-field micrographs of MERRF, CYTB, and 143B ρ0 cells after 6 days in indicated conditions (right) (mean±SD, n=3, **p<0.05). […] Mass isotopomer analysis of aspartate in wild type, phenformin-treated wild type, and ETC-defective cybrid cells cultured for 7 hours with [U-^13C]-L-glutamine (middle) in the presence or absence of pyruvate (1 mM). The fraction of labeled aspartate from [U-^13C]-L-glutamine is indicated (mean±SD, for n=3, **p<0.05) (bottom). OAA, oxaloacetate. […] Immunoblot analysis of wild type, MERRF, and CYTB cybrid cells expressing sgControl and sgGOT1 (top). Raptor was used as a loading control. […] Relative cell number was determined by normalizing to sgControl expressing cell line (mean±SD, for n=3, **p<0.05). […]
Polar metabolites were extracted using 1 ml of ice-cold 80% methanol with 10 ng/ml valine-d8 as an internal standard. […] Relative quantitation of polar metabolites was performed with XCalibur QuanBrowser 2.2 (Thermo Fisher Scientific) using a 5 ppm mass tolerance and referencing an in-house library of chemical standards.

Consider `N[C@@H](CC(=O)O)C(=O)O` [aspartate], for which, in assay [1], the “NAD+/NADH ratio in cells with ETC inhibition” value is “did not restore the NAD/NADH ratio in cells with ETC inhibition; also recorded: does not increase the NAD^+/NADH ratio in cells with ETC inhibition”.

Turning to `CCC(=O)C(=O)O` [AKB, α-ketobutyrate], the “Cell cycle distribution (DNA content)” value in assay [2] is recorded as “do not obviously arrest at a specific stage of the cell cycle”. For the same compound, the “Consumption rate of AKB versus excretion rate of AHB” value in assay [3] is reported as “the consumption rate of AKB matched the excretion rate of AHB”. `CC(=O)C(=O)O` [pyruvate]: in assay [4], the “Aspartate synthesis in ETC-defective cybrid cells” value is listed as “stimulated aspartate synthesis in the ETC-defective cells; also recorded: stimulates aspartate biosynthesis in cybrid cells with ETC dysfunction”.
